Test results: PMC9060491, “Biochemical and structural characterization of an aromatic ring–hydroxylating dioxygenase for terephthalic acid catabolism” (Proceedings of the National Academy of Sciences of the …, 2022)
Each block holds one molecule with its values, some of them ahead of it.

Tests used:
TPADO reductase (TphA1) = target: T1, TPADO reductase (TphA1) (Comamonas sp., UniProt Q3C1E0); test: HPLC of TPADO/reductase reaction; type: biochemical; conditions: electron donor in the coupled system with TPADO and TPA; NADPH not used
T1 construct: gene tphA1I; C-terminal His6, expressed in E. coli; plant-type [2Fe-2S], flavin
T1 sequence (Q3C1E0 whole entry): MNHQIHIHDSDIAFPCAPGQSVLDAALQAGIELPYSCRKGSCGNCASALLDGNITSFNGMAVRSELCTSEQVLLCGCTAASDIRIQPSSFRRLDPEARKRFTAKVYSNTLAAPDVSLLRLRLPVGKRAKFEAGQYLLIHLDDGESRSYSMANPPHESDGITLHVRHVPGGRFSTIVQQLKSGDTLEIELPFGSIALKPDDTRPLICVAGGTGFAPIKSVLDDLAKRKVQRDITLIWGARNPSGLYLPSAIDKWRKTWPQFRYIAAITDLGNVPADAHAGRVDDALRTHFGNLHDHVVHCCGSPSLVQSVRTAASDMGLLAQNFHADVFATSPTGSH

[1] = target: T2, terephthalate dioxygenase (TPADO; TphA2/TphA3) (Comamonas sp., UniProt Q3C1D5); test: HPLC end point, NADH and analog consumption; type: biochemical; conditions: uncoupler, not oxygenated; 90 min in air, limiting NADH, with TphA1 reductase
T2 construct: gene tphA2II; alpha with C-terminal His6, coexpressed with beta from pET-DUET in E. coli; alpha3beta3 heterohexamer, 196 kDa; Rieske [2Fe-2S] and mononuclear Fe(II); with Terephthalate 1,2-dioxygenase, terminal oxygenase component subunit beta
T2 sequence (Q3C1E2 whole entry, one chain of several, further chain): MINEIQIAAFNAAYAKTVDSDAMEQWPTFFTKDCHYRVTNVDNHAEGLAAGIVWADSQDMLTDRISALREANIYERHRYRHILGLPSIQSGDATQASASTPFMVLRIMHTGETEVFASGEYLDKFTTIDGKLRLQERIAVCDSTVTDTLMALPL

[2] = substrate: O=C(O)c1ccc(C(=O)O)cc1; test: steady-state kinetics, Michaelis-Menten fit; type: biochemical, Comamonas sp.; conditions: ambient air (O2 not shown saturating), NADH, with TphA1 reductase

Molecule: NC(=O)C1=CN([C@@H]2O[C@H](COP(=O)(O)OP(=O)(O)OC[C@H]3O[C@@H](n4cnc5c(N)ncnc54)[C@H](O)[C@@H]3O)[C@@H](O)[C@H]2O)C=CC1 [NADH]
- HPLC of TPADO/reductase reaction (TPADO reductase (TphA1)): specifically in the presence of nicotinamide adenine dinucleotide hydride (NADH) rather than its phosphorylated analog

- % NADH consumption [1]: 100%
Molecule: O=C(O)c1ccc([N+](=O)[O-])cc1 [4-NBA, 4-nitrobenzoic acid]

B1: terephthalate dioxygenase (TPADO; TphA2/TphA3) (Comamonas sp.) (protein)
chain: MQESIIQWHGATNTRVPFGIYTDTANADQEQQRIYRGEVWNYLCLESEIPGAGDFRTTFAGETPIVVVRDADQEIYAFENRCAHRGALIALEKSGRTDSFQCVYHAWSYNRQGDLTGVAFEKGVKGQGGMPASFCKEEHGPRKLRVAVFCGLVFGSFSEDVPSIEDYLGPEICERIERVLHKPVEVIGRFTQKLPNNWKLYFENVKDSYHASLLHMFFTTFELNRLSQKGGVIVDESGGHHVSYSMIDRGAKDDSYKDQAIRSDNERYRLKDPSLLEGFEEFEDGVTLQILSVFPGFVLQQIQNSIAVRQLLPKSISSSELNWTYLGYADDSAEQRKVRLKQANLIGPAGFISMEDGAVGGFVQRGIAGAANLDAVIEMGGDHEGSSEGRATETSVRGFWKAYRKHMGQEMQA
notes: alpha with C-terminal His6, coexpressed with beta from pET-DUET in E. coli; alpha3beta3 heterohexamer, 196 kDa; Rieske [2Fe-2S] and mononuclear Fe(II); with Terephthalate 1,2-dioxygenase, terminal oxygenase component subunit beta
- Km [2]: 9.6 ± 1 µM
- kcat [2]: 0.2 ± 0.005 s⁻¹
